Experiments:
Type in all cases: cell-based, mouse
C2C12 cells [1] = experiment: BrdU cell proliferation assay (plate and slide); details: for Effect of inhibitor on IGF-I induced proliferation: C2C12 BrdU plate assay, IGF-I 10 nM, PD 50 µM, NVP 100 nM
Procedure: Proliferation was measured using a 5-bromo-2P-deoxyuridine (BrdU) plate and slide assays (Roche, Indianapolis, IN). For the plate assay, 5×10^3 C2C12 cells were seeded in 96-well plates. Cells were starved for 6 hours, and treated with synthetic E-peptides or recombinant IGF-I overnight. BrdU was added for incorporation for 2 hours before cell lysis and BrdU staining. For MAPK inhibition, a MEK inhibitor was added to the media (PD 098059, Sigma, 50 µM). For IGF-IR inhibition, 100 nM NVPAEW541 was added to the media. The slide assay was done as above, except with 2×10^4 C2C12 cells in 24-well plates on glass cover slips. Cells were stained with an antibody to BrdU and with DAPI (VectorLabs, Burlingame, CA) to visualize nuclei. Images were acquired using a Leica DMR epifluorescence microscope using OpenLab imaging software (Improvision, PerkinElmer, Waltham, MA).

C2C12 cells [2] = experiment: Transwell cell migration assay; details: C2C12 trans-well, 5 hours, PD 50 µM, NVP 100 nM; for Effect of inhibitor on EB induced migration: EB 100 nM
Procedure: E-peptide effects on cell migration were tested using a 24-well Transwell (8.0 µm pore size) plate assay (Corning Inc., Lowell, MA). C2C12 cells (2×10^4) were seeded in the upper chambers in serum-free media, and synthetic E-peptides in serum-free media were placed in the bottom chambers. Cells were allowed to migrate for 5 hours. Non-migrated cells remaining in the upper chamber were removed from the transwell membranes with Q-tips and migrated cells were fixed with 4% formaldehyde and stained with DAPI. The transwell membranes were mounted onto slides, and imaged at 10× using above-mentioned microscopy and analysis software. For MAPK signaling or IGF-IR inhibition, PD (50 µM) or NVP (100 nM) was added to both chambers at the start of the experiment.

[3] = tested on: ERK1/2 phosphorylation (MAPK signaling) in C2C12 cells; experiment: ERK1/2 phosphorylation immunoblot after synthetic E-peptide treatment
Procedure: (§1) C2C12 (ATCC, Manassas, VA) cells were maintained in growth media (DMEM containing, 10% fetal bovine serum, and gentamicin). For signaling experiments, 2×10^4 cells were seeded in 6-well plates in growth media and allowed to attach and grow overnight. The next day, cells were starved overnight in growth media without serum. On the third day, cells were treated with synthetic E-peptides and/or recombinant human IGF-I (Gemini Bio-Products West Sacramento, CA) for the time periods indicated in figures, and the cells were processed for immunoblotting as described below. For IGF-IR inhibition, 100 nM NVPAEW541 [47] diluted in DMSO or DMSO only was added to starved cells 90 minutes before and during treatment with synthetic peptides.
(§2) Signaling pathway activation was determined by immunoblotting.

[4] = tested on: Akt phosphorylation in C2C12 cells; experiment: Akt phosphorylation immunoblot; details: C2C12, 20 min; EA 1 µM, EB 10 nM, IGF-I 10 nM
Procedure: as §1, §2

Row | Compound | Effect of inhibitor on IGF-I induced proliferation (C2C12 cells [1]) | Effect of inhibitor on EB induced migration (C2C12 cells [2]) | Effect of inhibitor on cell migration in the absence of E-peptides (C2C12 cells [2]) | Effect of IGF-IR inhibitor on ERK1/2 phosphorylation in EA, EB and IGF-I treated cells ([3]; C2C12, NVP 100 nM 90 min before and during 20 min stimulation, EA 1 µM, EB 10 nM, IGF-I 10 nM, vs DMSO, N = 3) | Effect of IGF-IR inhibitor on ERK1/2 phosphorylation in NoTx cells ([3]; C2C12, NVP 100 nM vs DMSO, no stimulation) | Proliferation by BrdU positivity on slides (in words) (C2C12 cells [1]; C2C12 on cover slips, EA and Scr 100 nM, EB and IGF 10 nM, N = 5 slides) | P-Akt response (in words) [4] | P-ERK1/2 response (in words), without inhibitor ([3]; C2C12, 20 min, EA 1 µM, EB 10 nM, IGF-I 10 nM, DMSO)
1 | Nc1ncnc2c1c(-c1cccc(OCc3ccccc3)c1)cn2[C@H]1C[C@@H](CN2CCC2)C1 [NVP, NVPAEW541] | significantly decreased IGF-I induced proliferation | significantly decreased EB induced migration | not affected | significantly reduced the ERK1/2 phosphorylation | no change in ERK1/2 phosphorylation |  |  | 
2 | COc1cccc(-c2cc(=O)c3ccccc3o2)c1N [PD, PD 098059] | significantly decreased IGF-I induced proliferation | decrease in EB migration that did not reach significance | not affected |  |  |  |  | 
3 | IGF-I: recombinant human IGF-I (Gemini Bio-Products), positive control |  |  |  |  |  | increased C2C12 proliferation | increase in both P-Akt and P-ERK1/2 | increase in both P-Akt and P-ERK1/2

Source: paper PMC3448668, “Insulin-Like Growth Factor-I E-Peptide Activity Is Dependent on the IGF-I Receptor” (PLoS ONE, 2012)
